Source: patent publication US7968585B2, “Inhibitors of 11-beta-hydroxysteroid dehydrogenase 1” (Eli Lilly and Company, priority 2006, dated 2011)

What was measured:
11β-HSD1 = target: T1, 11β-HSD1 (Homo sapiens, UniProt P28845); assay: Human Aortic Smooth Muscle Cell Assay (cortisone to cortisol conversion); type: cell-based; conditions: primary human aortic smooth muscle cells (AoSMC), hTNFα induced, cortisol immunoassay
T1 construct: assay medium containing 12 ng/mL hTNFα to induce expression of 11β-HSD1; endogenous in cells; host or cells: primary human aortic smooth muscle cells (AoSMC), induced with hTNFα
Experimental: Human Aortic Smooth Muscle Cell Assay
Primary human aortic smooth muscle cells (AoSMC) are cultured in 5% FBS growth medium to a passage number of 6, then pelleted by centrifugation and resuspended at a density of 9×10^4 cells/mL in 0.5% FBS assay medium containing 12 ng/mL hTNFα to induce expression of 11β-HSD1. Cells are seeded into 96-well tissue culture assay plates at 100 μL/well (9×10^3 cells/well) and incubated for 48 hours at 37° C., 5% CO2. Following induction, cells are incubated for 4 hours at 37° C., 5% CO2 in assay medium containing test compounds then treated with 10 μL/well of 10 μM cortisone solubilized in assay medium, and incubated for 16 hours at 37° C., 5% CO2. Medium from each well is transferred to a plate for subsequent analysis of cortisol using a competitive fluorescence resonance time resolved immunoassay. In solution, an allophycocyanin (APC)-cortisol conjugate and free cortisol analyte compete for binding to a mouse anti-cortisol antibody/Europium (Eu)-anti mouse IgG complex. Higher levels of free cortisol result in diminishing energy transfer from the Europium-IgG to the APC-cortisol complex resulting in less APC fluorescence. Fluorescent intensities for Europium and APC are measured using a LJL Analyst AD. Europium and APC excitation is measured using 360 nm excitation and 615 nm and 650 nm emission filters respectively. Time resolved parameters for Europium were 1000 μs integration time with a 200 μs delay. APC parameters are set at 150 μs integration time with a 50 μs delay. Fluorescent intensities measured for APC are modified by dividing by the Eu fluorescence (APC/Eu). This ratio is then used to determine the unknown cortisol concentration by interpolation using a cortisol standard curve fitted with a 4-parameter logistic equation. These concentrations are then used to determine compound activity by plotting concentration versus % inhibition, fitting with a 4-parameter curve and reporting the IC50.

cortisone conversion = assay: Acute In Vivo Cortisone Conversion Assay; conditions: male C57BL/6 mice, oral dose of 10 mg/kg, cortisone challenge after 16 hours, serum cortisol
Experimental: Acute In Vivo Cortisone Conversion Assay
In general, compounds are dosed orally into mice, the mice are challenged with a subcutaneous injection of cortisone at a set timepoint after compound injection, and the blood of each animal is collected some time later. Separated serum is then isolated and analyzed for levels of cortisone and cortisol by LC-MS/MS, followed by calculation of mean cortisol and percent inhibition of each dosing group. Specifically, male C57BL/6 mice are obtained from Harlan Sprague Dawley at average weight of 25 grams. Exact weights are taken upon arrival and the mice randomized into groups of similar weights. Compounds are prepared in 1% w-w HEC, 0.25% w-w polysorbate 80, 0.05% w-w Dow Corning antifoam #1510-US at various doses based on assumed average weight of 25 grams. Compounds are dosed orally, 200 μl per animal, followed by a subcutaneous dose, 200 μl per animal, of 30 mg/kg cortisone at 1 to 24 hours post compound dose. At 10 minutes post cortisone challenge, each animal is euthanized for 1 minute in a CO2 chamber, followed by blood collection via cardiac puncture into serum separator tubes. Once fully clotted, tubes are spun at 2500×g, 4° C. for 15 minutes, the serum transferred to wells of 96-well plates (Corning Inc, Costar #4410, cluster tubes, 1.2 ml, polypropylene), and the plates are frozen at −20° C. until analysis by LC-MS/MS. […]

[1] = target: recombinant human 11β-HSD type 1 enzyme (Homo sapiens, UniProt P28845); assay: 11β-HSD Type 1 Enzyme Assay (NADPH fluorescence); type: biochemical; conditions: three hour incubation, read-out: Human 11-βHSD1 IC50
Experimental: 11β-HSD Type 1 Enzyme Assay
Human 11β-HSD type 1 activity is measured by assaying NADPH production by fluorescence assay. Solid compounds are dissolved in DMSO to a concentration of 10 mM. Twenty microliters of each are then transferred to a column of a 96-well polypropylene Nunc plate where they are further diluted 50-fold followed by subsequent two-fold titration, ten times across the plate with additional DMSO using a Tecan Genesis 200 automated system. Plates are then transferred to a Tecan Freedom 200 system with an attached Tecan Temo 96-well head and an Ultra 384 plate reader. Reagents are supplied in 96-well polypropylene Nunc plates and are dispensed individually into black 96-well Molecular Devices High Efficiency assay plates (40 μL/well capacity) in the following fashion: 9 μL/well of substrate (2.22 mM NADP, 55.5 μM Cortisol, 10 mM Tris, 0.25% Prionex, 0.1% Triton X100), 3 μL/well of water to compound wells or 3 μL to control and standard wells, 6 μL/well recombinant human 11β-HSD type 1 enzyme, 2 μL/well of compound dilutions. […] Plates are then shaken once more for 15 seconds then placed into an Ultra 384 microplate reader (355EX/460EM) for detection of NADPH fluorescence.

T1 sequence (P28845 whole entry): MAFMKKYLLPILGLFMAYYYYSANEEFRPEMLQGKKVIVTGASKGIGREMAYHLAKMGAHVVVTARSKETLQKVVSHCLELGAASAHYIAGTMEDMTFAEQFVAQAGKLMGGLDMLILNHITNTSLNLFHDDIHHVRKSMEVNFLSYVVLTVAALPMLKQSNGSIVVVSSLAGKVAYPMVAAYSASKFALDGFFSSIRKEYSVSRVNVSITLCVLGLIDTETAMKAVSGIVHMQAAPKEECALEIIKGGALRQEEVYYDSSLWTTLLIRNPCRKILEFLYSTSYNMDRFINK
Chain of recombinant human 11β-HSD type 1 enzyme (P28845 whole entry): as above

IC50 (11β-HSD1)	IC50 [1]	Structure (SMILES)	% Inhibition after 16 hours (dose of 10 (mg/kg)) (cortisone conversion)
0.047 µM		O=C(c1ccc(-c2cc(Cl)c(CN3CCC4(CCCCC4)C3=O)c(Cl)c2)cc1)N1CCC(C(F)(F)F)CC1 [Example 5, 2-[3,5-Dichloro-4′-(4-trifluoromethyl-piperidine-1-carbonyl)-biphenyl-4-ylmethyl]-2-aza-spiro[4.5]decan-1-one]	69.3%
0.0205 µM	0.888 µM	O=C(c1ccc(-c2cc(Cl)c(CN3CCC4(CCCCC4)C3=O)c(Cl)c2)cc1)N1CCN(CCF)CC1 [Example 6, 2-{3,5-Dichloro-4′-[4-(2-fluoro-ethyl)-piperazine-1-carbonyl]-biphenyl-4-ylmethyl}-2-aza-spiro[4.5]decan-1-one]	41.2%
0.0215 µM	0.552 µM	O=C1N(Cc2c(Cl)cc(-c3ccc(F)cc3)cc2Cl)CCC12CCc1n[nH]cc1C2 (stereo not shown) [Example 14]	
